Measurements published in paper PMC12566046, “Arylpiperazinyl-Benzocycloheptapyrrole-Carboxamides Endowed with Dual Anticancer and Antiviral Activities” (Molecules, 2025).
Where two headings read alike, the source gives them in different places.

Legend:
[1] = system: SW-620 (colon cancer cell line); experiment: NCI-60 five-dose assay; assay type: cell-based, human
[2] = system: HCT-15 (colon cancer cell line); experiment: NCI-60 five-dose assay; assay type: cell-based, human; settings: five doses (10^−4–10^−8 M), read-out: Growth inhibition 50 (GI50)
[3] = system: RPMI-8226 (leukemia cell line); experiment: NCI-60 five-dose assay; assay type: cell-based, human; settings: five doses (10^−4–10^−8 M), read-out: Growth inhibition 50 (GI50)
SF-295 (CNS cancer) = experiment: NCI-60 five-dose assay; assay type: cell-based; settings: Homo sapiens, five-dose screen
[4] = system: KM12 (colon cancer cell line); experiment: NCI-60 five-dose assay; assay type: cell-based, human; settings: five doses (10^−4–10^−8 M), read-out: Growth inhibition 50 (GI50)
[5] = system: HT29 (colon cancer cell line); experiment: NCI-60 five-dose assay; assay type: cell-based, human; settings: read-out: Growth inhibition 50 (GI50)
[6] = system: CAKI-1 (renal cancer cell line); experiment: NCI-60 five-dose assay; assay type: cell-based; settings: Homo sapiens, five-dose screen
M14 (melanoma cell line) = experiment: NCI-60 five-dose assay
[7] = system: COLO 205 (colon cancer cell line); experiment: NCI-60 five-dose assay; assay type: cell-based, human; settings: five doses (10^−4–10^−8 M), read-out: Growth inhibition 50 (GI50)
[8] = system: MDA-MB-468 (breast cancer); experiment: NCI-60 five-dose assay; assay type: cell-based, human; settings: five-dose screen
[9] = system: K-562 (leukemia cell line); experiment: NCI-60 five-dose assay; assay type: cell-based, human; settings: read-out: Growth inhibition 50 (GI50)
[10] = system: NCI-H460 (non-small cell lung cancer); experiment: NCI-60 five-dose assay; assay type: cell-based; settings: Homo sapiens, five-dose screen
[11] = system: UACC-62 (melanoma cell line); experiment: NCI-60 five-dose assay
[12] = system: MDA-MB-435 (melanoma cell line); experiment: NCI-60 five-dose assay
[13] = system: UACC-257 (melanoma cell line); experiment: NCI-60 five-dose assay
[14] = system: CCRF-CEM (leukemia cell line); experiment: NCI-60 five-dose assay; assay type: cell-based, human; settings: five doses (10^−4–10^−8 M), read-out: Growth inhibition 50 (GI50)
[15] = system: SK-MEL-28 (melanoma cell line); experiment: NCI-60 five-dose assay
Leukemia panel = experiment: NCI-60 five-dose assay, panel-level GI50 (mean graph midpoint, range); assay type: cell-based, human
Procedure: (§1) Due to these preliminary results, six compounds, 1, 5, 10, 11, 17, and 20, were selected for the five-dose screen NCI-programme against the same panel of tumour cell lines.
(§2) Next, a mean graph midpoint (MG_MD) was calculated for compounds 1, 5, 10, 11, 17, and 20 and reported as waterfall graphs GI50, TGI, and LC50 in the Supplementary Materials (Figures S69–S86). In Table 9, we reported the average GI50 for the nine-cancer panels, underlining both the activity and selectivity for compounds 1, 10, 11, and 20.

Melanoma panel = experiment: as above; assay type: cell-based, human
Procedure: as §1, §2

Colon Cancer panel = experiment: as above; assay type: cell-based, human
Procedure: as §1, §2

[16] = system: HL-60(TB) (leukemia cell line); experiment: NCI-60 five-dose assay; assay type: cell-based, human; settings: five doses (10^−4–10^−8 M), read-out: Growth inhibition 50 (GI50)
[17] = system: NCI cancer panel (all cell lines); experiment: NCI-60 five-dose assay, overall mean graph midpoint (MG_MID); assay type: cell-based, human
Procedure: as §1, §2

[18] = system: SK-MEL-2 (melanoma cell line); experiment: NCI-60 five-dose assay
[19] = system: SF-295 (CNS cancer cell line); experiment: NCI-60 single-dose assay; assay type: cell-based, human; settings: human
Method in brief: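 Read-out is cytotoxic activity from a single-concentration test; the panel spans nine human cancer types, including leukemia, lung, colon and renal.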

SR (leukemia cell line) = experiment: NCI-60 five-dose assay; assay type: cell-based, human; settings: five doses (10^−4–10^−8 M), read-out: Growth inhibition 50 (GI50)
[20] = system: RXF 393 (renal cancer cells); experiment: NCI-60 five-dose assay; assay type: cell-based, human; settings: five-dose screen
[21] = system: HCC-2998 (colon cancer cell line); experiment: NCI-60 five-dose assay; assay type: cell-based, human; settings: five doses (10^−4–10^−8 M), read-out: Growth inhibition 50 (GI50)
[22] = system: SK-MEL-5 (melanoma cell line); experiment: NCI-60 five-dose assay
Huh-7 cells = experiment: Cytotoxicity on uninfected Huh-7 cells (WST-8, crystal violet); settings: read-out: ZIKV/Huh‐7 CC50; preliminary screening (50, 5, 0.5 μM), Huh-7

CCN1CCC[C@H]1CNC(=O)c1[nH]c2c(c1Cl)CCCc1ccccc1-2 [Compound 1, (S)-3-Chloro-N-(1-ethyl-2-pyrrolidinylmethyl)-5,6-dihydro-4H-benzo[6,7]cyclohepta[1,2-b]pyrrol-2-carboxamide]
GI50 ([1]; Homo sapiens, SW-620, read-out: Growth inhibition 50 (GI50)): 1750 nM | GI50 ([2]; Homo sapiens): 2310 nM | GI50 ([3]; Homo sapiens): 2290 nM | GI50 (SF-295 (CNS cancer)): 1890 nM | GI50 ([4]; Homo sapiens): 3020 nM | GI50 ([5]; Homo sapiens, HT-29, five doses (10^−4–10^−8 M)): 1860 nM | GI50 [6]: 2290 nM | GI50 (M14 (melanoma cell line); Homo sapiens, M14, read-out: Growth inhibition 50 (GI50)): 2030 nM | CC50 (M14 (melanoma cell line); Homo sapiens, M14, read-out: LC50 (molar concentration leading to 50% net cell death)): 9120 nM | TGI (molar concentration giving total growth inhibition) (M14 (melanoma cell line); M14): 4360 nM | GI50 ([7]; Homo sapiens): 1800 nM | GI50 ([8]; Homo sapiens): 2680 nM | GI50 ([9]; Homo sapiens, K562, five doses (10^−4–10^−8 M)): 1760 nM | GI50 [10]: 2030 nM | GI50 ([11]; Homo sapiens, UACC-62, read-out: Growth inhibition 50 (GI50)): 1870 nM | CC50 ([11]; Homo sapiens, UACC-62, read-out: LC50 (molar concentration leading to 50% net cell death)): 8320 nM | TGI (molar concentration giving total growth inhibition) ([11]; UACC-62): 3980 nM | GI50 ([12]; Homo sapiens, MDA-MB-435, read-out: Growth inhibition 50 (GI50)): 1760 nM | CC50 ([12]; Homo sapiens, MDA-MB-435, read-out: LC50 (molar concentration leading to 50% net cell death)): 5620 nM | TGI (molar concentration giving total growth inhibition) ([12]; MDA-MB-435): 3550 nM | GI50 ([13]; Homo sapiens, UACC-257, read-out: Growth inhibition 50 (GI50)): 1880 nM | CC50 ([13]; Homo sapiens, UACC-257, read-out: LC50 (molar concentration leading to 50% net cell death)): 8510 nM | TGI (molar concentration giving total growth inhibition) ([13]; UACC-257): 3980 nM | GI50 ([14]; Homo sapiens): 5960 nM | GI50 ([15]; Homo sapiens, SK-MEL-28, read-out: Growth inhibition 50 (GI50)): 1870 nM | CC50 ([15]; Homo sapiens, SK-MEL-28, read-out: LC50 (molar concentration leading to 50% net cell death)): 7240 nM | GI50 (Leukemia panel; Homo sapiens, Leukemia panel average, read-out: GI50 mean graph midpoint (MG_MID)): 2810 nM | GI50 (Leukemia panel; Homo sapiens, Leukemia panel, read-out: average GI50 (mean graph midpoint)): 2820 nM | GI50 (Leukemia panel; Homo sapiens, five-dose screen, cell lines as named in the sentence, read-out: GI50, range over leukemia cell lines): 1760 to 5960 nM | GI50 (Melanoma panel; Homo sapiens, Melanoma panel average, read-out: GI50 mean graph midpoint (MG_MID)): 2140 nM | GI50 (Melanoma panel; Homo sapiens, five-dose screen, number of cell lines as named in the sentence, read-out: GI50, range over melanoma cell lines): 1540 to 2030 nM | GI50 (Colon Cancer panel; Homo sapiens, Colon Cancer panel average, read-out: GI50 mean graph midpoint (MG_MID)): 2340 nM | GI50 (Colon Cancer panel; Homo sapiens, five-dose screen, read-out: GI50, range over colon cancer cell lines): 1800 to 3120 nM | GI50 ([16]; Homo sapiens): 2600 nM | GI50 ([17]; Homo sapiens, MG_MID over all panels, read-out: GI50 mean graph midpoint (MG_MID)): 4260 nM | GI50 ([17]; Homo sapiens, all cell lines, read-out: MG_MID Log10 GI50 (converted)): 4790 nM | GI50 ([18]; Homo sapiens, SK-MEL-2, read-out: Growth inhibition 50 (GI50)): 9380 nM | CC50 ([18]; Homo sapiens, SK-MEL-2, read-out: LC50 (molar concentration leading to 50% net cell death)): 46800 nM | TGI (molar concentration giving total growth inhibition) ([18]; SK-MEL-2): 21340 nM | growth inhibition (GI%) and cytotoxicity (negative values) [19]: −24.35% | GI50 (SR (leukemia cell line); Homo sapiens): 2290 nM | GI50 ([20]; Homo sapiens): 2700 nM | GI50 ([21]; Homo sapiens): 2980 nM | GI50 ([22]; Homo sapiens, SK-MEL-5, read-out: Growth inhibition 50 (GI50)): 1680 nM | CC50 ([22]; Homo sapiens, SK-MEL-5, read-out: LC50 (molar concentration leading to 50% net cell death)): 5620 nM | TGI (molar concentration giving total growth inhibition) ([22]; SK-MEL-5): 3090 nM

N-(3-(4-Benzylpiperazin-1-yl)propyl)-2-chloro-1,4,5,6-tetrahydrobenzo[6,7]cyclohepta[1,2-b]pyrrole-2-carboxamide [Compound 11]
GI50 ([1]; SW-620, five doses (10^−4–10^−8 M), read-out: Growth inhibition 50 (GI50)): 3570 nM | GI50 [2]: 3650 nM | GI50 [3]: 2200 nM | GI50 [4]: 4110 nM | GI50 ([5]; five doses (10^−4–10^−8 M)): 2600 nM | TGI (molar concentration giving total growth inhibition) (M14 (melanoma cell line); M14): 3550 nM | GI50 (M14 (melanoma cell line); read-out: Growth inhibition 50 (GI50), M14, five doses (10^−4–10^−8 M)): 1830 nM | CC50 (M14 (melanoma cell line); read-out: LC50 (molar concentration leading to 50% net cell death), M14): 6920 nM | GI50 [7]: 1650 nM | GI50 [8]: 2690 nM | GI50 ([9]; five doses (10^−4–10^−8 M)): 2570 nM | TGI (molar concentration giving total growth inhibition) ([11]; UACC-62): 9770 nM | GI50 ([11]; read-out: Growth inhibition 50 (GI50), UACC-62, five doses (10^−4–10^−8 M)): 2550 nM | CC50 ([11]; read-out: LC50 (molar concentration leading to 50% net cell death), UACC-62): 31600 nM | CC50 (Huh-7 cells): 4890 nM | TGI (molar concentration giving total growth inhibition) ([12]; MDA-MB-435): 7410 nM | GI50 ([12]; read-out: Growth inhibition 50 (GI50), MDA-MB-435, five doses (10^−4–10^−8 M)): 2590 nM | CC50 ([12]; read-out: LC50 (molar concentration leading to 50% net cell death), MDA-MB-435): 30200 nM | TGI (molar concentration giving total growth inhibition) ([13]; UACC-257): 3390 nM | GI50 ([13]; read-out: Growth inhibition 50 (GI50), UACC-257, five doses (10^−4–10^−8 M)): 1740 nM | CC50 ([13]; read-out: LC50 (molar concentration leading to 50% net cell death), UACC-257): 6610 nM | GI50 [14]: 3890 nM | TGI (molar concentration giving total growth inhibition) ([15]; SK-MEL-28): 3310 nM | GI50 ([15]; read-out: Growth inhibition 50 (GI50), SK-MEL-28, five doses (10^−4–10^−8 M)): 1750 nM | CC50 ([15]; read-out: LC50 (molar concentration leading to 50% net cell death), SK-MEL-28): 6160 nM | GI50 (Leukemia panel; Leukemia panel average, read-out: GI50 mean graph midpoint (MG_MID)): 2880 nM | GI50 (Melanoma panel; Melanoma panel average, read-out: GI50 mean graph midpoint (MG_MID)): 2340 nM | GI50 (Colon Cancer panel; Colon Cancer panel average, read-out: GI50 mean graph midpoint (MG_MID)): 2810 nM | GI50 [16]: 2920 nM | GI50 ([17]; MG_MID over all panels, read-out: GI50 mean graph midpoint (MG_MID)): 4470 nM | TGI (molar concentration giving total growth inhibition) ([18]; SK-MEL-2): 20890 nM | GI50 ([18]; read-out: Growth inhibition 50 (GI50), SK-MEL-2, five doses (10^−4–10^−8 M)): 7850 nM | CC50 ([18]; read-out: LC50 (molar concentration leading to 50% net cell death), SK-MEL-2): 47900 nM | GI50 (SR (leukemia cell line)): 2490 nM | GI50 [20]: 1960 nM | GI50 [21]: 1730 nM | TGI (molar concentration giving total growth inhibition) ([22]; SK-MEL-5): 3090 nM | GI50 ([22]; read-out: Growth inhibition 50 (GI50), SK-MEL-5, five doses (10^−4–10^−8 M)): 1720 nM | CC50 ([22]; read-out: LC50 (molar concentration leading to 50% net cell death), SK-MEL-5): 5620 nM
